Source: patent publication USRE39707E1, “Camptothecin derivatives” (Catholic Healthcare West, priority 2001, dated 2007)
Read-outs that look alike come from different tables or passages of the source. Marks after values point to notes of the source that are not given here.

Key:
C3H/HeJ mice = test system: C3H/HeJ mice
Protocol: This example provides directions for performing in vivo toxicity tests of the compounds of the invention on C3H/HeJ mice.
Acute toxicities of the compounds of this invention are evaluated on C3H/HeJ mice (body weight 18-22 g). The MTD40 (maximum tolerated dose at day 40) values were determined by the standard procedure described by Gad and Chengelis (see, for example, “Acute Toxicology Testing,” 2nd Ed., Shayne O. Gad and Christopher P. Chengelis, pp. 186-195 (Academic Press)). In the consecutive type studies, 2 mice were dosed at low and moderate doses of 40 and 100 mg/kg. If no severe and irreversible toxicity (euthanasia is required) occurs at these doses, a new pair of animals was initiated at 180 mg/kg, which is 1.8 times higher than 100 mg/kg. Sequential dosages (about 3 doses on 3 pairs of animals, i.e. 2 mice for each drug dose) were increased by a factor of 1.8 until severe and irreversible toxicity (euthanasia is required) occurred. Then another pair of animals was initiated at the highest nonlethal dosage, and successive dosages were increased by a factor of 1.15. The result of this exercise was two dosages, one apparently nonlethal and the other lethal if severe and irreversible toxicity occurs and euthanasia is required, separated by a factor of 1.15. Six mice were dosed at each dosage. If no severe and irreversible toxicity occurred at the lower dosage and at least one with severe and irreversible toxicity occurred at the higher dose, then the lower dose was considered to be the MTD. The compounds of this invention were administered to C3H/HeJ mice by intraperitoneal injection. Drug toxicity was evaluated on mice checked daily for 45 days.

HCT116 = assay: Cell colony formation assay, HCT116 cells; format: cell-based, human; settings: 72 hours drug exposure
Protocol: (§1) This example provides directions for growing cells and testing compounds of the invention for their effect on the growth of the cells. All cells were purchased from DCIDC Tumor Repository, NCI, NIH.
The cells were incubated in a CO2 incubator at 37° C. for 5 hours for attachment to the bottom of Petri dishes. Drugs were made fresh in medium at ten times the final concentration, and then 0.3 ml of this stock solution was added to the 2.7 ml of medium in the dish. The cells were then incubated with drugs for 72 hours at 37° C. At the end of the incubation the drug-containing media were decanted, the dishes were rinsed with 4 ml of Hank's Balance Salt Solution (HBSS), 5 ml of fresh medium was added, and the dishes were returned to the incubator for colony formation. The cell colonies were counted using colony counter after incubation for 7 days for HCT116 cells and PC-3 cells and 8 days for VM46 cells, respectively.

VM46 = assay: Cell colony formation assay, VM46 cells; format: cell-based; settings: 72 hours drug exposure
Protocol: as §1
(§2) Four hundred cells (HCT 116, PC-3, NCI/ADR-RES: human breast cancer cells) or five hundred cells (VM46) were plated in 60 mm Petri dishes containing 2.7 ml of medium (modified McCoy's 5a medium) containing 10% fetal bovine serum and 100 units/ml penicillin and […] streptomycin. The cells were incubated in a CO2 incubator at 37° C. for 5 hours for attachment to the bottom of Petri dishes. Drugs were made fresh in medium at ten times the final concentration, and then 0.3 ml of this stock solution was added to the 2.7 ml of medium in the dish. The cells were then incubated with drugs for 72 hours at 37° C. At the end of the incubation the drug-containing media were decanted, the dishes were rinsed with 4 ml of Hank's Balance Salt Solution (HBSS), 5 ml of fresh medium was added, and the dishes were returned to the incubator for colony formation. The cell colonies were counted using colony counter after incubation for 7 days for HCT116 cells and PC-3 cells and 8 days for VM46 cells, respectively.
(§3) Values of ID50 (the drug concentration producing 50% inhibition of colony formation) may be determined for each tested compound. The directions described in this example may be used in other cells, such as DU-145.

PC-3 = assay: Cell colony formation assay, PC-3 cells; format: cell-based, human; settings: 72 hours drug exposure
Protocol: as §1, §2, §3

[1] = maximum tolerated dose at day 40, C3H/HeJ mice

Compound | In Vivo Toxicity MTD40 (ip, mg/kg) in C3H/Hej Mice (C3H/HeJ mice; mouse, in vivo) [mg/kg] | In Vitro Efficacy: Survival (%) of HCT116 (HCT116; 1 nM) [%] | In Vitro Efficacy: Survival (%) of HCT116 (HCT116; 10 nM) [%] | In Vitro Efficacy: Survival (%) of HCT116 (HCT116; 100 nM) [%] | In Vivo Toxicity MTD40 (ip, mg/kg) in C3H/Hej Mice (C3H/HeJ mice; [1]) | In vitro efficacy: Survival (%) of cells line VM46 (VM46; 1 nM) [%] | In vitro efficacy: Survival (%) of cells line VM46 (VM46; 10 nM) [%] | In vitro efficacy: Survival (%) of cells line PC-3 (PC-3; 1 nM) [%] | In vitro efficacy: Survival (%) of cells line PC-3 (PC-3; 5 nM) [%]
CCC1(OC(=O)COc2ccc3c(c2)CC[C@@H]2[C@@H]3CC[C@]3(C)C(=O)CC[C@@H]23)C(=O)OCc2c1cc1n(c2=O)Cc2cc3ccccc3nc2-1 (some centres unmarked) [Example 000531, Camptothecin-20-O-ester of estra-1,3,5(10)-trien-17-one-3-oxyacetic acid] | >150 | 81.45 | 0 | 0 | – | – | – | – | –
CCC1(OC(=O)COc2ccc(C#N)c(F)c2)C(=O)OCc2c1cc1n(c2=O)Cc2cc3ccccc3nc2-1 (centres unmarked) [Example 001030, Camptothecin-20-O-ester of 4-cyano-3-fluorophenoxyacetic acid] | – | 86.90 | 0 | – | – | – | – | – | –
CCC1(OC(=O)COc2ccc(OC)cc2)C(=O)OCc2c1cc1n(c2=O)Cc2cc3ccccc3nc2-1 (centres unmarked) [Example 000314, Camptothecin-20-O-ester of 4-methoxyphenoxyacetic acid] | – | – | – | 0 | >150 mg/kg | – | – | – | –
CCC1(OC(=O)COc2c(Cl)cc(F)cc2Cl)C(=O)OCc2c1cc1n(c2=O)Cc2cc3ccccc3nc2-1 (centres unmarked) [Example 000602, Camptothecin-20-O-ester of 2,6-dichloro-4-fluorophenoxyacetic acid] | – | 74.00 | 0 | 0 | >150 mg/kg | – | – | – | –
Camptothecin-20-O-ester of ethylexyacetic acid [Example 000627] | – | 70.44 | 0 | 0 | <150 mg/kg | – | – | – | –
CCc1c2c(nc3ccc(OC(=O)N4CCC(N5CCCCC5)CC4)cc13)-c1cc3c(c(=O)n1C2)COC(=O)[C@]3(O)CC [CPT 11, 7-ethyl-10[4-(1-piperidino)-1-piperidino]carbonyloxy CPT, reference compound] | – | – | 100 | 90.52 | – | – | – | – | –
CCC1(OC(=O)COc2ccc(C)cc2)C(=O)OCc2c1cc1n(c2=O)Cc2cc3ccccc3nc2-1 (centres unmarked) [Example 000518, Camptothecin-20-O-ester of 4-methylphenoxyacetic acid] | – | 97.31 | 0 | 0 | <150 mg/kg | – | – | – | –
CCC1(OC(=O)COc2ccc(Cl)cc2)C(=O)OCc2c1cc1n(c2=O)Cc2cc3ccccc3nc2-1 (centres unmarked) [Example 000517, Camptothecin-20-Oester of 4-chlorophenoxyacetic acid] | <150 | 100 | 0 | 0 | – | – | – | – | –
CC[C@@]1(OC(=O)COc2ccc(C)nc2I)C(=O)OCc2c1cc1n(c2=O)Cc2cc3ccccc3nc2-1 [Example 000616, Camptotheci-20-O-ester of 6-iodo-2-methylpyridine-5-oxyacetic acid] | – | 84.85 | 0 | 0 | >150 mg/kg | – | – | – | –
CCC1(OC(=O)COc2ccc(OCc3ccccc3)cc2)C(=O)OCc2c1cc1n(c2=O)Cc2cc3ccccc3nc2-1 (centres unmarked) [Example 000425, Camptothecin-20-O-ester of 4-benzyloxyphenoxyacetic acid] | – | 100 | 0 | 0 | <150 mg/kg | 80.46 | 0 | 99.28 | 71.61
CC[C@@]1(OC(=O)COc2nc3ccccc3s2)C(=O)OCc2c1cc1n(c2=O)Cc2cc3ccccc3nc2-1 [Example 000727, Camptothecin-20-O-ester of benzothiazole-2-oxyacetic acid] | – | 96.81 | 0 | 0 | – | – | – | – | –
CCC1(OC(=O)COc2cccc(CBr)c2)C(=O)OCc2c1cc1n(c2=O)Cc2cc3ccccc3nc2-1 (centres unmarked) [Example 000501, Camptothecin-20-O-ester of 3-bromomethylphenoxyacetic acid] | – | 100 | 0 | 0 | <150 mg/kg | 86.60 | 0 | 96.02 | 41.77
CCCCOCC(=O)OC1(CC)C(=O)OCc2c1cc1n(c2=O)Cc2cc3ccccc3nc2-1 (centres unmarked) [Example 000316, Camptothecin-20-O-ester of butyloxyacetic acid] | – | 100 | 0 | 0 | <150 mg/kg | 77.50 | 0 | 85.72 | 54.79
CCC1(OC(=O)COc2ccc([N+](=O)[O-])c(C(F)(F)F)c2)C(=O)OCc2c1cc1n(c2=O)Cc2cc3ccccc3nc2-1 (centres unmarked) [Example 000605, Camptothecin-20-O-ester of 4-nitro-3-trifuoromethylphenoxyacetic acid] | – | 88.00 | 0 | 0 | >150 mg/kg | – | – | – | –
CCC1(OC(=O)COc2ccc(C(C)C)cc2)C(=O)OCc2c1cc1n(c2=O)Cc2cc3ccccc3nc2-1 (centres unmarked) [Example 000418, Camptothecin-20-O-ester of 4-isopropylphenoxyacetic acid] | – | 97.56 | 0 | 0 | >150 mg/kg | 79.17 | 0 | 100 | 78.12
CCC1(OC(=O)COc2ccc(C(=O)O)cc2)C(=O)OCc2c1cc1n(c2=O)Cc2cc3ccccc3nc2-1 (centres unmarked) [Example 000725, Camptothecin-20-O-ester of 4-carboxyphenoxyacetic acid] | – | 100 | 0 | 0 | >150 mg/kg | – | – | – | –
CC[C@@]1(O)C(=O)OCc2c1cc1n(c2=O)Cc2cc3ccccc3nc2-1 [CPT, (S)-4-ethyl-4-hydroxy-1H-pyrano-[3′,4′:6,7]indolizino[1,2-b]quinoline-3,14(4H,12H)-dione, reference compound] | – | 100 | 73.72 | – | <20** mg/kg | 77.64 | 0 | 93.85 | 33.09
